Reference: patent US10208067B2, “Compounds for treating spinal muscular atrophy” (Hoffmann-La Roche Inc., priority 2015, dated 2019)
Read-outs that look alike come from different tables or passages of the source.

Key:
[1] = system: full length SMN2 minigene mRNA (HEK293H cells stably transfected with SMN2-A minigene); test: RT-qPCR assay for SMN2 minigene pre-mRNA splicing in cultured cells; format: cell-based; details: Homo sapiens, HEK293-H, 24 hours
[2] = system: SMN protein in SMA patient fibroblast cells (GM03813); test: SMN protein assay (HTRF) in cultured cells; format: cell-based; details: Homo sapiens, SMA Type 1 patient fibroblasts, 48 hours; for EC (1.5-fold): concentration producing 1.5 times SMN protein vs vehicle, read-out: EC1.5x SMN protein; for maximal fold induction: relative to vehicle control, read-out: max. fold increase of SMN protein
Experimental: The SMN HTRF (homogeneous time resolved fluorescence) assay is used to quantify the level of SMN protein in SMA patient fibroblast cells treated with test compounds. Materials used and respective sources are listed below in Table 4.
Cells are thawed and cultured in DMEM-10% FBS for 72 hours. Cells are trypsinized, counted and re-suspended to a concentration of 25,000 cells/mL in DMEM-10% FBS. The cell suspensions are plated at 5,000 cells per well in a 96 well microtiter plate and incubated for […]. […] 1 μL of test compound solution is transferred to cell-containing wells and cells are incubated for 48 hours in a cell culture incubator (37° C., 5% CO2, 100% relative humidity). Triplicate samples are set up for each test compound concentration. After 48 hours, the supernatant is removed from the wells and 25 μL of the RIPA lysis buffer, containing protease inhibitors, is added to the wells and incubated with shaking at room temperature for 1 hour. 25 μL of the diluent is added and then 35 μL of the resulting lysate is transferred to a 384-well plate, where each well contains 5 μL of the antibody solution (1:100 dilution of anti-SMN d2 and anti-SMN cryptate in SMN reconstitution buffer). The plate is centrifuged for 1 minute to bring the solution to the bottom of the wells, then incubated overnight at room temperature. Fluorescence for each well of the plate at 665 nm and 620 nm is measured on an EnVision multilabel plate reader (Perkin-Elmer).
The normalized fluorescence signal is calculated for each sample, Blank and vehicle control well by dividing the signal at 665 nm by the signal at 620 nm. Normalizing the signal accounts for possible fluorescence quenching due to the matrix effect of the lysate. The ΔF value (a measurement of SMN protein abundance as a percent value) for each sample well is calculated by subtracting the normalized average fluorescence for the Blank control wells from the normalized fluorescence for each sample well, then dividing this difference by the normalized average fluorescence for the Blank control wells and multiplying the resulting value by 100. The ΔF value for each sample well represents the SMN protein abundance from test compound-treated samples. The ΔF value for each sample well is divided by the ΔF value for the vehicle control wells to calculate the fold increase in SMN protein abundance relative to the vehicle control. Table 5 provides EC1-5× concentrations for SMN protein expression that was obtained from the 7-point concentration data generated according to the above procedure for particular compounds of the present invention.
Table 6 provides the maximum fold increase of SMN protein that was obtained from the 7-point concentration data generated according to the above procedure for particular compounds of the present invention

[3] = Table 3 (title: production of full length SMN2 minigene mRNA), read-out: EC1.5x SMN protein
[4] = concentration increasing full length SMN2 minigene mRNA 1.5-fold vs vehicle, read-out: EC1.5x minigene

| Compound | EC (1.5-fold) [1, 3] | EC (1.5-fold) [2] | maximal fold induction [2] | EC (1.5-fold) [1, 4] |
| --- | --- | --- | --- | --- |
| Cc1nc2ccc(-c3cc(=O)n4cc(N5CCN6CCC[C@@H]6C5)cc(C)c4n3)nn2n1 [Example 34, 7-[(8aR)-3,4,6,7,8,8a-hexahydro-1H-pyrrolo[1,2-a]pyrazin-2-yl]-9-methyl-2-(2-methyl-[1,2,4]triazolo[1,5-b]pyridazin-6-yl)pyrido[1,2-a]pyrimidin-4-one] | 0.0028 µM | 0.0191 µM | 1.8 |  |
| CCN1CCN(c2ccc3nc(-c4ccc5nc(C)nn5n4)cc(=O)n3c2)CC1 [Example 43, 7-(4-ethylpiperazin-1-yl)-2-(2-methyl-[1,2,4]triazolo[1,5-b]pyridazin-6-yl)pyrido[1,2-a]pyrimidin-4-one] | 0.0328 µM | 0.0562 µM | 2.02 |  |
| Cc1nc2ncc(-c3cc(=O)n4cc(N5CC6CNC6C5)ccc4n3)cn2n1 (stereo not drawn) [Example 9, 7-(3,6-diazabicyclo[3.2.0]heptan-3-yl)-2-(2-methyl-[1,2,4]triazolo[1,5-a]pyrimidin-6-yl)pyrido[1,2-a]pyrimidin-4-one] |  | 2.88 µM | 1.9 | 0.283 µM |
| Cc1nc2ncc(-c3cc(=O)n4cc(N5CCNC6(CC6)C5)ccc4n3)cn2n1 [Example 13, 7-(4,7-diazaspiro[2.5]octan-7-yl)-2-(2-methyl-[1,2,4]triazolo[1,5-a]pyrimidin-6-yl)pyrido[1,2-a]pyrimidin-4-one] |  | 14.1 µM | 1.52 | 2.55 µM |
| Cc1nc2ccc(-c3cc(=O)n4cc(N5CCN[C@H](C)C5)cc(C)c4n3)nn2n1 [Example 40, 9-methyl-7-[(3R)-3-methylpiperazin-1-yl]-2-(2-methyl-[1,2,4]triazolo[1,5-b]pyridazin-6-yl)pyrido[1,2-a]pyrimidin-4-one] | 0.0088 µM | 0.0148 µM | 2.08 |  |
| Cc1nc2ccc(-c3cc(=O)n4cc(N5CC6(CCNCC6)C5)ccc4n3)nn2n1 [Example 38, 7-(2,7-diazaspiro[3.5]nonan-2-yl)-2-(2-methyl-[1,2,4]triazolo[1,5-b]pyridazin-6-yl)pyrido[1,2-a]pyrimidin-4-one] | 0.002 µM | 0.0199 µM | 1.69 |  |
| Cc1nc2ccc(-c3cc(=O)n4cc(N5CCCN(C)CC5)cc(C)c4n3)nn2n1 [Example 25, 9-methyl-7-(4-methyl-1,4-diazepan-1-yl)-2-(2-methyl-[1,2,4]triazolo[1,5-b]pyridazin-6-yl)pyrido[1,2-a]pyrimidin-4-one] | 0.0103 µM | 0.226 µM | 1.89 |  |
